Laboratory results as given in US9878986B2, “Compounds for selective histone deacetylase inhibitors, and pharmaceutical composition comprising the same” (CHONG KUN DANG PHARMACEUTICAL CORP., priority 2013, dated 2018).

Assays:
HDAC 6 = biological target: T1, HDAC 6 (Homo sapiens, UniProt Q9UBN7); assay: Test of HDAC activities, HDAC6 (fluorimetric); format: biochemical; design: purchased Calbiochem 382180; settings: samples at 0.1, 1, 10, 100, 1000 nM; 37° C. 60 minutes; fluorescence Ex 390, Em 460; read-out: HDAC inhibitory activities, HDAC6
T1 sequence (Q9UBN7 1-1215): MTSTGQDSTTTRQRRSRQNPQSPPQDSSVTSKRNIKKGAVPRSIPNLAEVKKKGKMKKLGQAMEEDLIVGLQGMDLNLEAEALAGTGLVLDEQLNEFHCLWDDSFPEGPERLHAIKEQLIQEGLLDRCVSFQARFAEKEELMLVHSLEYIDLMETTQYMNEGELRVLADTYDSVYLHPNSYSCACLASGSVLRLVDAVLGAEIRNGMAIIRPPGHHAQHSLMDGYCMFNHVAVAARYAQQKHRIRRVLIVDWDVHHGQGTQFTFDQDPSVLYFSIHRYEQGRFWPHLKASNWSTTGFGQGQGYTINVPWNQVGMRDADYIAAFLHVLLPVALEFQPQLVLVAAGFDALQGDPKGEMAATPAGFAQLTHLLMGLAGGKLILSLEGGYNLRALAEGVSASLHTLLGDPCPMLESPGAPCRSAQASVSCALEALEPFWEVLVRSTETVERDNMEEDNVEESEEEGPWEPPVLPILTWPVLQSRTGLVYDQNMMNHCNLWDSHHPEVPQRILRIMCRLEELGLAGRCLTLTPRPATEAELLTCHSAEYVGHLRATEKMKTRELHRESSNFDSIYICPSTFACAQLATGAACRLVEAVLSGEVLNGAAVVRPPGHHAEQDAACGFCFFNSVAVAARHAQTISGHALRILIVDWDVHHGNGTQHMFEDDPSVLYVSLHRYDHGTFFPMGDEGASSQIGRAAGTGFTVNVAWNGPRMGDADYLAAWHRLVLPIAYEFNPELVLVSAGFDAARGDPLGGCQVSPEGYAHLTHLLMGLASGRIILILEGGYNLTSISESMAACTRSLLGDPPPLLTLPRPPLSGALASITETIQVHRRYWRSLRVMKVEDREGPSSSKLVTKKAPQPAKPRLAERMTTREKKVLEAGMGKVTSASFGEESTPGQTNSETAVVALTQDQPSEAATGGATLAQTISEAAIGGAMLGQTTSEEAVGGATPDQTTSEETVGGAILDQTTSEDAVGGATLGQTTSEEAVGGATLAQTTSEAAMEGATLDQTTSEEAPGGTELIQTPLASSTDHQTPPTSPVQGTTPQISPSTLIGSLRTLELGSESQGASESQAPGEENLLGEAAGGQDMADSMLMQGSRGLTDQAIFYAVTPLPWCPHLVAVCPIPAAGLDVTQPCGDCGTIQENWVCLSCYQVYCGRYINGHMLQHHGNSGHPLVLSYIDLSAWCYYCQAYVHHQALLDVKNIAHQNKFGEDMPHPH
In short: (§1)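 HDAC1 tested at 100, 1000 and 10000 nM; recombinant human HDAC6 at 0.1, 1, 10, 100 and 1000 nM. Reaction 60 min at 37° C, then developer for 30 min at 37° C; fluorescence read at Ex 390/Em 460.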

HDAC1 = HDAC1 (Homo sapiens, UniProt Q13547); assay: Test of HDAC activities, HDAC1 Fluorimetric Drug Discovery Assay Kit; format: biochemical; design: purchased Enzolifesciences BML-AK511; settings: samples at 100, 1000, 10000 nM; 37° C. 60 minutes; fluorescence Ex 390, Em 460; read-out: HDAC inhibitory activities, HDAC1
Chain of HDAC1 (Q13547 whole entry): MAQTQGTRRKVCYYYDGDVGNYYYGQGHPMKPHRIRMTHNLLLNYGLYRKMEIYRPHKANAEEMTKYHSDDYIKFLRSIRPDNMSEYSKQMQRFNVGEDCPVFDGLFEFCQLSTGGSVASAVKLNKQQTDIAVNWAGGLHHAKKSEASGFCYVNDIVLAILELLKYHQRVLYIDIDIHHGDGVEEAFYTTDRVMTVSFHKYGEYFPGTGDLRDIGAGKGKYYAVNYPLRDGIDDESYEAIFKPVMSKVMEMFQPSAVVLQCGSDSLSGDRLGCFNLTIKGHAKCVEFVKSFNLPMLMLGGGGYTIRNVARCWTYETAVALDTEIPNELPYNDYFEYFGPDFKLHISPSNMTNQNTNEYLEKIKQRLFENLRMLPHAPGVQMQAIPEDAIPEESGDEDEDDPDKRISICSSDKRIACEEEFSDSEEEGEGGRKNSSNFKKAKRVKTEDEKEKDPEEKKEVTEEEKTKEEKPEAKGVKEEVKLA
In short: as §1

[1] = test system: collagen-induced arthritis models; assay: Collagen-induced arthritis models; format: in vivo, DBA/1J mice; settings: 30 mg/kg twice a day
Method: An emulsion was prepared by mixing bovine collagen type II (Chondrex) and complete Freund's adjuvant (Chondrex) at a ratio of 1:1 until the […] using a 1 ml pipette. Each 100 μL of emulsion was intradermally injected into the tail of DBA/1J mice for the first immunization. After 21 days, an emulsion was prepared by mixing bovine collagen type II and incomplete Freund's adjuvant (Chondrex) at a ratio of 1:1 by the same method as above. Each of 100 μL of emulsion was intradermally injected into the upper part of the tail of DBA/1J mice for the second boosting immunization. After the second boosting immunization, the mice were grouped according to body weight, the test drug was administered to each group, and the effects of the test drugs were measured by measuring the clinical score and the body weight. The clinical scores were assigned from 0 to 4, and the total clinical score was determined by evaluating the feet of each mouse and summing up the scores (normal: 0, most severe edema: 16). That is, the efficacy in the arthritis models was evaluated with the severity of edema of the joint, and a higher score was assigned to more severe edema.

colitis models = assay: Colitis models (dextran sulfate sodium); format: in vivo, C57BL/6J mice; settings: intraperitoneally twice a day after 8 days from supply of DSS; disease-induced models lost to 17.5 to 18 g
Method: 3.0% dextran sulfate sodium (DSS: MP biomedicals) was dissolved in deionized water and supplied to 9-week-old C57BL/6J mice for 5 to 7 days and then water was normally supplied to the mice to induce colitis in animal models. The experimental animals were classified into a solvent control group and each group treated with Compound 254 and Compound 255 as test materials based on the body weight of the experimental animals. The test material was intraperitoneally injected twice a day after 8 days from the supply of DSS. The evaluation of the efficacy in colitis models was made by determining the degree to which the weight, lost due to the disease, was recovered to normal level, and the results are shown in FIG. 6.

[2] = test system: adjuvant-induced arthritis models; assay: Adjuvant-induced arthritis models; format: in vivo, Lewis rat; settings: for clinical score: intraperitoneally, vehicle group 4.2
Method: Complete Freund's Adjuvant (Chondrex) containing 10 mg/mL Heat killed mycobacteria toxin was sufficiently mixed, and then 100 μL was taken and intradermally injected into the upper part of the tail of Lewis rat to induce arthritis. After 10 days, the length of the ankle circumference of rats was measured, and then the rats were grouped and used in the experiment. Each compound was intraperitoneally injected twice a day. The clinical score, the length of the ankle circumference, and the weight were measured twice a week after the administration of the compounds. The clinical scores were assigned from 0 to 4 based on the thesis of Woods, etc. (J. Immunology, 1214-1222, 2001), and the total clinical score was determined by evaluating the feet of each rat and summing up the scores (normal: 0, most severe edema: 16). The length of the ankle circumference was calculated based on the formula of 2×3.14(√(a^2+b^2/2)) after measuring top-bottom sides (a) of the foot and lateral sides (b) of the foot. The final value was determined by averaging the calculated values of each foot.

Structure (SMILES): Cn1ncc2ccc(-c3cccc(N(Cc4ccc(C(=O)NO)cc4)C(=O)N4CCOCC4)c3)cc21 [Compound 254, N-(4-(hydroxycarbamoyl)benzyl)-N-(3-(1-methyl-1H-indazol-6-yl)phenyl)morpholine-4-carboxamide]
- IC50 (HDAC 6): 2 nM
- IC50 (HDAC1): 173 nM
- arthritis symptoms improved by ([1]; versus vehicle group): more than 40%
- clinical score ([1]; score 0 to 16, vehicle group 11.6): 6.4
- weight recovered to (colitis models): 18.5 to 19.0 g

Structure (SMILES): CCN1CCN(C(=O)N(Cc2ccc(C(=O)NO)cc2)c2cccc(C(F)(F)F)c2)CC1 [Compound 461, 4-ethyl-N-(4-(hydroxycarbamoyl)benzyl)-N-(3-(trifluoromethyl)phenyl)piperazine-1-carboxamide]
- IC50 (HDAC 6): 1 nM
- IC50 (HDAC1): 2720 nM
- clinical score ([2]; 25 mg/kg twice a day): 1.9
- clinical score ([2]; 50 mg/kg twice a day): 1.3
- improvement compared with MTX used as the control group ([2]; 25 and 50 mg/kg twice a day): higher than that of MTX
- arthritis symptoms improved by ([2]; 25 and 50 mg/kg twice a day, versus vehicle group): 50 to 70%

Structure (SMILES): O=C(NO)c1ccc(CN(C(=O)N2CCCCC2)c2cccc(C(F)(F)F)n2)cc1 [Compound 828, N-(4-(hydroxycarbamoyl)benzyl)-N-(6-(trifluoromethyl)pyridin-2-yl)piperidine-1-carboxamide]
- IC50 (HDAC 6): 36.7 nM
- IC50 (HDAC1): 4140 nM

Structure (SMILES): O=C(NO)c1ccc(CN(C(=O)N2CC[C@H](F)C2)c2cccc(C(F)(F)F)n2)cc1 [Compound 829, (S)-3-fluoro-N-(4-(hydroxycarbamoyl)benzyl)-N-(6-(trifluoromethyl)pyridin-2-yl)pyrrolidine-1-carboxamide]
- IC50 (HDAC 6): 8.2 nM
- IC50 (HDAC1): 1600 nM
